The subject of assay [1] is KRAS G12C mutant NCI-H358 cells. Nature of the assay: Cell proliferation inhibition experiment, 3D spheroid, CellTiter-Glo, NCI-H358. The format is cell-based, human. The settings on record: Homo sapiens, NCI-H358, 120 h, NCI-H358 (KRAS G12C mutant) 3D spheroid, 5 days with compound, CellTiter-Glo; read-out: H358 IC50. In short, it runs like this:
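Cells seeded in 2% FBS medium in spheroid plates (800 H358 or 400 A549 per well), grown overnight to form 3D spheroids, then exposed to 3.16-fold compound dilutions (0.1% DMSO) for 5 days. CellTiter-Glo luminescence gave inhibition vs DMSO and medium blanks; IC50 by four-parameter fit.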

The test system of assay [2] is phosphorylated ERK downstream of KRAS G12C in MIA PaCa2 cells. Description: Cell p-ERK detection experiment (HTRF) in MIA PaCa2. The format is cell-based, human. The settings on record: Homo sapiens, MIA PaCa-2, 2 h, MIA PaCa2 cells, 2 hours with compound, Advance ERK phospho-T202/Y204 HTRF kit; read-out: p-ERK IC50. The text has this:
Raw materials and instruments: MIA PaCa-2 purchased from ATCC; article number: CRL-1420; batch number: 63143594; DMEM purchased from Gibco; article number: 11995-065; batch number: 2186878; FBS purchased from Gibco; article number: 10099-141; batch number: 2109290CP; Horse serum purchased from Gibco; article number: 16050-122; batch number: 1818976; Trypsin-EDTA purchased from Gibco; article number: 25200-072; batch number: 2085552; PS purchased from Gibco; article number: 15140-122; batch number: 2145451; DMSO purchased from VWR AMRESCO; article number: 0231-500ML; batch number: 0457C072; 96-well cell culture plate purchased from Corning; article number: 3599; batch number: 22718601; white opaque 96-well plate purchased from Cisbio; article number: 66PL96025; batch number: N°05; Advance ERK phospho-T202/Y204 kit purchased from Cisbio; article number: 64AERPEH; batch number: 11D; microplate reader purchased from PerkinElmer; model: Envision MLD2105-0020; equipment number 1050369.
MIA PaCa2 was a KRAS G12C mutant human pancreatic cancer cell line cultured in 10% FBS+2.5% Horse serum DMEM culture medium. Cells at logarithmic growth stage were taken, digested with trypsin-EDTA, then collected and counted, and 2.5E4 cells were inoculated in a 96-well cell culture plate and cultured overnight. A 3.16-fold gradient concentration stock solution of 1000× compound was prepared with DMSO, and diluted 200-fold to 5× compound stock solution with culture medium. On the second day after cell inoculation, 5× compound stock solution was added to each cell culture well, with a final concentration of 1× and a DMSO content of 0.1%. DMSO was used as experimental control (control). After the compound was added and cultured for two hours, the residual culture medium was removed. 50 μL of cell lysate (from Advance ERK phospho-T202/Y204 kit, the same below) was added to each well, mixed well and incubated for 30 minutes, and then 16 μL of the mixed solution was transferred to a white opaque 96-well plate, and 16 μL of cell lysate was added to the blank wells. After the transfer was completed, 4 μL of p-ERK HTRF antibody (from Advance ERK phospho-T202/Y204 kit) mixture was added to each well, incubated for 4 hours, and the fluorescence value was read with the microplate reader. The inhibition rate of the compound IR (%)=(RLU control -RLU compound)/(RLU control-RLU blank)×100% was calculated. The gradient dilution concentration of the compound and the corresponding cell proliferation inhibition rate were fitted by Prism 8 four-parameter method, and the IC50 value was calculated. The compounds prepared in the above embodiments of the present disclosure have inhibitory activity of 0.0001 μM to 1 μM on the phosphorylated ERK level downstream of the cell channel of KRAS G12C protein mutant; some compounds have inhibitory activity of 0.001 μM to 1 μM or 0.001 μM to 0.5 μM on phosphorylated ERK level downstream of cell channel of KRAS G12C protein mutant.
A general note: Time-resolved FRET reads energy transfer from a long-lived donor to a nearby acceptor.

This is an account of results in patent US20230203060A1 (GENFLEET THERAPEUTICS (SHANGHAI) INC., priority 2020, published 2023).

One may read the IC50 as the concentration that gives 50% inhibition.

Take `C=CC(=O)N1CCN2C(=O)c3c(N4CCN(C(=O)C5CC5)C[C@@H]4C)nc(-c4c(O)cccc4F)c(Cl)c3OC[C@H]2C1` [Z320-1, (6aR)-8-acryloyl-4-chloro-1-((S)-4-(cyclopropanecarbonyl)-2-methylpiperazin-1-yl)-3-(2-fluoro-6-hydroxyphenyl)-6,6a,7,8,9,10-hexahydro-12H-pyrazino[2,1-c]pyrido[3,4-f][1,4]oxazepin-12-one]: the IC50 in assay [1] was determined as 0.0013 µM; in assay [2], 0.017 µM.
Take `C=CC(=O)N1CCN2C(=O)c3c(N4C[C@H](O)CC4(C)C)nc(-c4c(O)ccc(Cl)c4F)c(F)c3OC[C@H]2C1` (single isomer, unassigned) [Z340-2]: the IC50 in assay [1] turned out to be 0.0267 µM.
Regarding `C=CC(=O)N1CCN2C(=O)c3c(N4CC(=O)N(CC)C[C@@H]4C)nc(-c4c(O)cccc4F)c(Cl)c3OC[C@H]2C1` [Z319-1, (6aR)-8-acryloyl-4-chloro-1-((S)-4-ethyl-2-methyl-5-oxopiperazin-1-yl)-3-(2-fluoro-6-hydroxyphenyl)-6,6a,7,8,9,10-hexahydro-12H-pyrazino[2,1-c]pyrido[3,4-f][1,4]oxazepin-12-one], the values for the IC50 in assay [1] and in assay [2] were 0.0023 µM and 0.016 µM, respectively.
For the compound `C=CC(=O)N1CCN2C(=O)c3c(N4CCN(CCOC)C(C)(C)C4)nc(-c4c(O)cccc4F)c(Cl)c3OC[C@H]2C1` [Z321, (6aR)-8-acryloyl-4-chloro-3-(2-fluoro-6-hydroxyphenyl)-1-(4-(2-methoxyethyl)-3,3-dimethylpiperazin-1-yl)-6,6a,7,8,9,10-hexahydro-12H-pyrazino[2,1-c]pyrido[3,4-f][1,4]oxazepin-12-one], the IC50 was 0.0045 µM in assay [1] and 0.05 µM in assay [2].
Taken in the same sequence, the figures for `C=CC(=O)N1CCN2C(=O)c3c(N4C[C@@H](O)CC4(C)C)nc(-c4c(F)ccc(F)c4O)c(F)c3OC[C@H]2C1` (single isomer, unassigned) [Z449-1] were 0.007 µM and 0.151 µM.
As for `C=CC(=O)N1CCN2C(=O)c3c(N4CCN(C(C)=O)C(C)(C)C4)nc(-c4c(O)cccc4F)c(Cl)c3OC[C@H]2C1` [Z315, (6aR)-1-(4-acetyl-3,3-dimethylpiperazin-1-yl)-8-acryloyl-4-chloro-3-(2-fluoro-6-hydroxyphenyl)-6,6a,7,8,9,10-hexahydro-12H-pyrazino[2,1-c]pyrido[3,4-f][1,4]oxazepin-12-one], the IC50 in assay [1] came to 0.005 µM; in assay [2], 0.062 µM.
As to `C=CC(=O)N1CCN2C(=O)c3c(N4CC[C@H](OC)C4(C)C)nc(-c4c(O)cccc4F)c(F)c3OC[C@H]2C1` (single isomer, unassigned) [Z327-2], the IC50 in assay [1] was 0.0084 µM; in assay [2] it was 0.172 µM.
For `C=CC(=O)N1CCN2C(=O)c3c(N4CC(N(C)C5COC5)CC4(C)C)nc(-c4c(O)cccc4F)c(Cl)c3OC[C@H]2C1` (stereo partly drawn) [Z326, (6aR)-8-acryloyl-4-chloro-1-(2,2-dimethyl-4-(methyl(oxetan-3-yl)amino)pyrrolidin-1-yl)-3-(2-fluoro-6-hydroxyphenyl)-6,6a,7,8,9,10-hexahydro-12H-pyrazino[2,1-c]pyrido[3,4-f][1,4]oxazepin-12-one] the same measures were 0.0007 µM and 0.006 µM.
On to `C=CC(=O)N1CCN2C(=O)c3c(N4C[C@H](CO)CC4(C)C)nc(-c4c(O)cccc4F)c(Cl)c3OC[C@H]2C1` (single isomer, unassigned) [Z240-2], for which the IC50 in assay [1] stood at 0.0019 µM; in assay [2], 0.02 µM.
On to `C=CC(=O)N1CCN2C(=O)c3c(N4C[C@H](N(C)C)C[C@@H]4C)nc(-c4c(O)cccc4F)c(Cl)c3OC[C@H]2C1` [Z237-1, (6aR)-8-acryloyl-4-chloro-1-((2S,4R)-4-(dimethylamino)-2-methylpyrrolidin-1-yl)-3-(2-fluoro-6-hydroxyphenyl)-6,6a,7,8,9,10-hexahydro-12H-pyrazino[2,1-c]pyrido[3,4-f][1,4]oxazepin-12-one], for which the IC50 worked out at 0.0146 µM in assay [1] and 0.03 µM in assay [2].
Taken in the same sequence, the figures for `C=CC(=O)N1CCN2C(=O)c3c(N4Cc5cn(C)nc5C4(C)C)nc(-c4c(O)cccc4F)c(Cl)c3OC[C@H]2C1` [Z310, (6aR)-8-acryloyl-1-(2,6,6-trimethylpyrrolo[3,4-c]pyrazol-5(2H,4H,6H)-yl)-4-chloro-3-(2-fluoro-6-hydroxyphenyl)-6,6a,7,8,9,10-hexahydro-12H-pyrazino[2,1-c]pyrido[3,4-f][1,4]oxazepin-12-one] were 0.0106 µM and 0.104 µM.
Taken in the same sequence, the figures for `C=CC(=O)N1CCN2C(=O)c3c(N4C[C@H](OC)C[C@@H]4C)nc(-c4c(O)cccc4F)c(Cl)c3OC[C@H]2C1` [Z259a, (6aR)-8-acryloyl-4-chloro-3-(2-fluoro-6-hydroxyphenyl)-1-((2S,4R)-4-methoxy-2-methylpyrrolidin-1-yl)-6,6a,7,8,9,10-hexahydro-12H-pyrazino[2,1-c]pyrido[3,4-f][1,4]oxazepin-12-one] were 0.003 µM and 0.027 µM.
Taken in the same sequence, the figures for `C=CC(=O)N1CCN2C(=O)c3c(N4CC[C@@H](OC)C4(C)C)nc(-c4c(O)cccc4F)c(Cl)c3OC[C@H]2C1` (single isomer, unassigned) [Z241a-2] were 0.0007 µM and 0.009 µM.
Consider `C=CC(=O)N1CCN2C(=O)c3c(N4CC[C@H](N(C)C)C4(C)C)nc(-c4c(O)cccc4F)c(Cl)c3OC[C@H]2C1` (single isomer, unassigned) [Z360-2], for which the IC50 in assay [1] amounted to 0.003 µM; in assay [2], 0.025 µM.
As to `C=CC(=O)N1CCN2C(=O)c3c(N4C[C@H](O)CC4(C)C)nc(-c4ccccc4F)c(Cl)c3OC[C@H]2C1` (single isomer, unassigned) [Z325-2], the IC50 came out at 0.0061 µM in assay [1] and 0.061 µM in assay [2].
Taken in the same sequence, the figures for `C=CC(=O)N1CCN2C(=O)c3c(N4CC(C)(C)OC[C@@H]4C)nc(-c4c(O)cccc4F)c(Cl)c3OC[C@H]2C1` [Z276-1, (6aR)-8-acryloyl-4-chloro-3-(2-fluoro-6-hydroxyphenyl)-1-((S)-2,2,5-trimethylmorpholino)-6,6a,7,8,9,10-hexahydro-12H-pyrazino[2,1-c]pyrido[3,4-f][1,4]oxazepin-12-one] were 0.0076 µM and 0.083 µM.
For `C=CC(=O)N1CCN2C(=O)c3c(N4CCO[C@](C)(COC)C4)nc(-c4c(O)cccc4F)c(Cl)c3OC[C@H]2C1` (single isomer, unassigned) [Z332-1] the same measures were 0.016 µM and 0.13 µM.
For `C=CC(=O)N1CCN2C(=O)c3c(N4CC(C)(O)CC4(C)C)nc(-c4c(O)cccc4F)c(Cl)c3OC[C@H]2C1` (stereo partly drawn) [Z243, (6aR)-8-acryloyl-4-chloro-3-(2-fluoro-6-hydroxyphenyl)-1-(4-hydroxy-2,2,4-trimethylpyrrolidin-1-yl)-6,6a,7,8,9,10-hexahydro-12H-pyrazino[2,1-c]pyrido[3,4-f][1,4]oxazepin-12-one] the same measures were 0.0022 µM and 0.019 µM.
With `C=CC(=O)N1CCN2C(=O)c3c(N4C[C@H](N5CCOCC5)CC4(C)C)nc(-c4c(O)cccc4F)c(Cl)c3OC[C@H]2C1` (single isomer, unassigned) [Z297-1], the values for the IC50 in assay [1] and in assay [2] were 0.001 µM and 0.011 µM, respectively.
For `C=CC(=O)N1CCN2C(=O)c3c(N4CCN(C5COC5)C[C@@H]4C)nc(-c4c(O)cccc4F)c(Cl)c3OC[C@H]2C1` (single isomer, unassigned) [Z239-1], in assay [1], the IC50 was determined as 0.015 µM.
The same measure, in the same setting: next, `C=CC(=O)N1CCN2C(=O)c3c(N4CCO[C@](C)(CO)C4)nc(-c4c(O)cccc4F)c(Cl)c3OC[C@H]2C1` (single isomer, unassigned) [Z333-1]: 0.026 µM.
